Several values for one entry are separate records, joined by “and”; a condition that tells them apart may be missing. Equal entries are not always repeated. Entries after “also recorded” stand apart in the source; their conditions may differ. Each block holds one compound with its values, some of them ahead of it.
Tests used:
MMP-1 = target: T1, MMP-1 (Homo sapiens, UniProt P03956); test: In vitro MMP-1 inhibition assay (Abcam kit ab139443); type: biochemical; details: for MMP-1 inhibition (in words): 500 nM, Fig. 3A
T1 construct: purchased Abcam ab139443
T1 sequence (P03956 100-269 limits assumed): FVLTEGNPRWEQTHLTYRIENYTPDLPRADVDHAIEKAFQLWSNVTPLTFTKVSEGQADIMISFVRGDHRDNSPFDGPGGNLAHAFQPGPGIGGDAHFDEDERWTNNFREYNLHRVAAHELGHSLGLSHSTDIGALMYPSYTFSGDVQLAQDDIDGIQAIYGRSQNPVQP
Description: (§1) Test inhibitors were incubated with MMP enzymes and assay buffer at 37 °C for 30 min. Enzyme reaction was initiated by adding substrate, and MMP activity was measured by monitoring optical density (OD) at 412 nm for 20 min at 1-min intervals. The residual activity (%) was calculated as: residual activity = (Vinhibitor/Vcontrol) × 100. The reaction velocity (V) in OD/min were determined by the slope of a line fit to the linear portion of the measured values.

NHF cells = test: Gelatin degradation assay (fluorescent gelatin, NHF cells); type: cell-based, human; details: 1 μM, four days, fluorescent-gelatin-coated plates
Description: Gelatin digestion was assessed using the QCM™ Gelatin Invadopodia Assay (#ECM670) (Sigma-Aldrich, USA). Plates were first coated with poly-L-lysine, activated with glutaraldehyde, and then coated with fluorescein-labelled gelatin. NHF cells were seeded onto the fluorescent gelatin-coated plates and incubated for 4 days. After incubation, the cells were fixed with formaldehyde and stained with DAPI for normalization based on cell number. Fluorescent gelatin levels were measured by detecting fluorescent intensity at an excitation wavelength of 492 nm and an emission wavelength of 518 nm using a Bio Tek Synergy H1 fluorescence reader (Agilent Technologies, USA). The residual gelatin (RG) was calculated by subtracting the fluorescent value of the wells with seeded cells from the values of wells without cells. This was normalized using the DAPI fluorescence to account for cell numbers per well. Gelatin degradation (%) was determined as: Gelatin degradation = (RGinhibitor/RGcontrol) × 100.

MMP-9 = target: T2, MMP-9 (Homo sapiens, UniProt P14780); test: Zymogram assay, MMP-9 in HaCaT cell conditioned media; type: biochemical; details: keratinocyte-conditioned media; 50 nM developing phase and 500 nM 48 h, Fig. 4B and 4D
T2 construct: endogenous in cells; host or cells: HaCaT keratinocytes (conditioned medium)
T2 sequence (P14780 94-707): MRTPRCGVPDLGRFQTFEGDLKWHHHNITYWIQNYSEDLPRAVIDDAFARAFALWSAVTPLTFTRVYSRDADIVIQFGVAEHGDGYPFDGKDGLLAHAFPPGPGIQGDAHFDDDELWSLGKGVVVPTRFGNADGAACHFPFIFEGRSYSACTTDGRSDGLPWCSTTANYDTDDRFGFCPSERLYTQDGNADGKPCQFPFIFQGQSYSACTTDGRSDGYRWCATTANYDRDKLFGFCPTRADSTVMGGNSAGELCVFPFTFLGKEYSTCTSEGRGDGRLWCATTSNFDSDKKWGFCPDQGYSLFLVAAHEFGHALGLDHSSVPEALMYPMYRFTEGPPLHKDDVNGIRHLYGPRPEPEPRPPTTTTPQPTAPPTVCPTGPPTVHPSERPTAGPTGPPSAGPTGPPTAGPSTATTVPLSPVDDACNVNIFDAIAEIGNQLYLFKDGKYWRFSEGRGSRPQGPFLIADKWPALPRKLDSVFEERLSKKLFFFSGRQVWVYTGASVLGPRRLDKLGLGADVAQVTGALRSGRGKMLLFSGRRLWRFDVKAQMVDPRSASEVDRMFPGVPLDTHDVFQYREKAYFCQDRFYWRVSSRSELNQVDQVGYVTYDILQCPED

MMP-2 = target: T3, MMP-2 (Homo sapiens, UniProt P08253); test: In vitro MMP-2 inhibition assay (Abcam kit ab139446); type: biochemical; details: for Selectivity of inhibition, MMP-2 over MMP-1 (in words): tested at 500 nM for MMP-1 and 50 nM for MMP-2; for IC50: apparent IC50, concentration-dependent inhibition, Fig. 2B; for MMP-2 inhibition (in words): 50 nM, Fig. 3A
T3 construct: purchased Abcam ab139446
T3 sequence (P08253 110-465 limits assumed): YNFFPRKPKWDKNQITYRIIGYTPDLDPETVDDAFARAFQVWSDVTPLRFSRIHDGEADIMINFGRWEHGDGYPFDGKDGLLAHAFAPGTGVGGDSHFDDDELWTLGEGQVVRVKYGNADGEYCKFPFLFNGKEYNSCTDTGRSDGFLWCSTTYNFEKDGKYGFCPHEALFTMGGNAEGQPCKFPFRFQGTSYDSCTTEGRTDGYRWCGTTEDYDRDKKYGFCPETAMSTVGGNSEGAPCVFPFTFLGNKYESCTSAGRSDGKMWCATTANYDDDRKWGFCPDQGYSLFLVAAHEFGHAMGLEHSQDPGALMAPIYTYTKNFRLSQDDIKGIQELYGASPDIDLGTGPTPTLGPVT
Description: as §1

- MMP-1 inhibition (in words) (MMP-1): maintained MMP-1 inhibition
Structure (SMILES): O=C(NO)C1CCCCN1S(=O)(=O)c1ccccc1 (centres unmarked) [Compound 1ac, N-hydroxy-1-(phenylsulfonyl)piperidine-2-carboxamide]

Structure (SMILES): O=C(NO)C1CCCCN1S(=O)(=O)c1ccc(-c2ccccc2)cc1 (centres unmarked) [Compound 1ad, 1-([1,1'-biphenyl]-4-ylsulfonyl)-N-hydroxypiperidine-2-carboxamide]
- Gelatin degradation per cell (in words) (NHF cells): statistically significant reductions
- MMP-9 inhibition, zymogram (in words) (MMP-9): effectively inhibited both MMP-2 and MMP-9

Structure (SMILES): CCCCOc1ccc(S(=O)(=O)N2CCCCC2C(=O)NO)cc1 (centres unmarked) [Compound 1af, 1-((4-butoxyphenyl)sulfonyl)-N-hydroxypiperidine-2-carboxamide]
- Gelatin degradation per cell (in words) (NHF cells): statistically significant reductions
- MMP-9 inhibition, zymogram (in words) (MMP-9): effectively inhibited both MMP-2 and MMP-9

- Selectivity of inhibition, MMP-2 over MMP-1 (in words) (MMP-2): selective inhibition of MMP-2
Structure (SMILES): Cc1ccc(S(=O)(=O)N2CCCCC2C(=O)NO)cc1 (centres unmarked) [Compound 1aj, N-hydroxy-1-tosylpiperidine-2-carboxamide]

- MMP-1 inhibition (in words) (MMP-1): weak MMP-1 inhibition
- IC50 (MMP-1; apparent IC50, concentration-dependent inhibition, Fig. 2B): 188 nM
- IC50 (MMP-2): 5.1 nM and < 10 nM
- Selectivity of inhibition, MMP-2 over MMP-1 (in words) (MMP-2): selectively inhibited MMP-2 over MMP-1
Structure (SMILES): CC(C)C(NS(=O)(=O)c1ccc(-c2ccccc2)cc1)C(=O)NO (centres unmarked) [Compound 1b, 2-([1,1'-biphenyl]-4-sulfonamido)-N-hydroxy-3-methylbutanamide]

Structure (SMILES): CCCCOc1ccc(S(=O)(=O)NC(C(=O)NO)C(C)C)cc1 (centres unmarked) [Compound 1d, 2-((4-butoxyphenyl)sulfonamido)-N-hydroxy-3-methylbutanamide]
- IC50 (MMP-2): 8.1 nM and < 10 nM
- Selectivity of inhibition, MMP-2 over MMP-1 (in words) (MMP-2): selectively inhibited MMP-2 over MMP-1; also recorded: strong selectivity for MMP-2

Structure (SMILES): CCCCOc1ccc(S(=O)(=O)NC(CC(C)C)C(=O)NO)cc1 (centres unmarked) [Compound 1j, 2-((4-butoxyphenyl)sulfonamido)-N-hydroxy-4-methylpentanamide]
- IC50 (MMP-2): 7.8 nM and < 10 nM
- Selectivity of inhibition, MMP-2 over MMP-1 (in words) (MMP-2): selectively inhibited MMP-2 over MMP-1; also recorded: strong selectivity for MMP-2

- MMP-2 inhibition (in words) (MMP-2): lower inhibitory activity against MMP-2
Structure (SMILES): O=C(NO)C(Cc1ccccc1)NS(=O)(=O)c1ccc(-c2ccccc2)cc1 (centres unmarked) [Compound 1n, 2-([1,1'-biphenyl]-4-sulfonamido)-N-hydroxy-3-phenylpropanamide]

Structure (SMILES): CCCCOc1ccc(S(=O)(=O)NC(Cc2ccccc2)C(=O)NO)cc1 (centres unmarked) [Compound 1p, 2-((4-butoxyphenyl)sulfonamido)-N-hydroxy-3-phenylpropanamide]
- MMP-2 inhibition (in words) (MMP-2): lower inhibitory activity against MMP-2

- MMP-1 inhibition (in words) (MMP-1): weaker MMP-1 inhibition
- IC50 (MMP-2): 18.9 nM
- Selectivity of inhibition, MMP-2 over MMP-1 (in words) (MMP-2): selectively inhibited MMP-2 over MMP-1
Structure (SMILES): O=C(NO)C1CCCN1S(=O)(=O)c1ccc(-c2ccccc2)cc1 (centres unmarked) [Compound 1t, 1-([1,1'-biphenyl]-4-ylsulfonyl)-N-hydroxypyrrolidine-2-carboxamide]

Structure (SMILES): CCCCOc1ccc(S(=O)(=O)N2CCCC2C(=O)NO)cc1 (centres unmarked) [Compound 1v, 1-((4-butoxyphenyl)sulfonyl)-N-hydroxypyrrolidine-2-carboxamide]
- IC50 (MMP-2): 32.6 nM
- Selectivity of inhibition, MMP-2 over MMP-1 (in words) (MMP-2): selectively inhibited MMP-2 over MMP-1

Structure (SMILES): CC(=NO)c1ccc(S(=O)(=O)N2CCCCC2C(=O)NO)cc1 (centres unmarked) [Compound 4an, N-hydroxy-1-((4-(1-(hydroxyimino)ethyl)phenyl)sulfonyl)piperidine-2-carboxamide]
- Gelatin degradation per cell (in words) (NHF cells): statistically significant reductions
- MMP-9 inhibition, zymogram (in words) (MMP-9): effectively inhibited both MMP-2 and MMP-9

Source: publication PMC11876007, “Design and Synthesis of Hydroxamate-Based Matrix Metalloproteinase-2 Inhibitors for Anti-Photoaging” (Journal of Microbiology and Biotechnology, 2025)
